# Source: patent publication US4266048A, “Synthesis of analogs of 3'-phosphoadenosine 5'-phosphosulfate (PAPS)” (The United States of America as represented by the …, priority 1978, dated 1981)
# Counter-ions that a name gives are not always drawn.
# Legend:
# [1] = target: T1, bovine adrenal estrogen sulfotransferase (EC 2.8.2.4) (Bos taurus, UniProt P19217); assay: Relative sulfurylation rate (RSR): enzymic transfer of sulfate from analogs IV and V to estrone at saturating steroid; conditions: for RSR (in words): sulfurylation of estrone relative to IVa (RSR=1); for reduction in RSR relative to IVa: 200 μM, may be a result of inhibition by coproducts; for calculated level of coproduct produced: nucleotide at 200 μM
# T1 sequence (P19217 1-295): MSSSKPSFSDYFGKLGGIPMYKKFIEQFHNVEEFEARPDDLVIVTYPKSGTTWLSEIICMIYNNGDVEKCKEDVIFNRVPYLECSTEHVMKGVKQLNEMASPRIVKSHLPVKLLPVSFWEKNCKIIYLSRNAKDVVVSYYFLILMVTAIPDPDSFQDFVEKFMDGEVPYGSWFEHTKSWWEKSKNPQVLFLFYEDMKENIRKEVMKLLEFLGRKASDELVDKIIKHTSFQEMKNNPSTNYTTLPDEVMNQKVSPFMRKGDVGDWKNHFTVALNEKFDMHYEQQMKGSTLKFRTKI
# [2] = target: T1, bovine adrenal estrogen sulfotransferase (EC 2.8.2.4); parameters: Ki data from Horwitz et al 1977; conditions: cited from earlier work; for enzyme affinity / effect of coproduct (in words) / Ki of coproduct: estrogen sulfotransferase; for enzyme affinity / effect of coproduct (in words): discussion of Ki values; for Ki of coproduct: unit not given
# [3] = target: T1, bovine adrenal estrogen sulfotransferase (EC 2.8.2.4); assay: Sulfate transfer to [6,7-3H2]estrone by Compounds IVa and Va (biological activity); assay type: biochemical
# Procedure: The biological activity of IV (like PAPS) may be measured by sulfate transfer to [6,7-^3 H2 ]estrone as mediated by bovine adrenal estrone sulfotransferase (3'-phosphoadenylylsulfate:estrone 3-sulfotransferase, EC 2.8.2.4) and is identical with that obtained with a sample of IV prepared by an established biochemical procedure.
# Biological activity of IVa and Va was determined by sulfate transfer to [6,7-^3 H2 ]estrone in the presence of bovine adrenal estrogen sulfotransferase (E.C. 2.8.2.4).
# Bovine spleen phosphodiesterase II (E.C. 3.1.4.18) and ribonuclease T2 were purchased from Sigma Chemical Company. Bovine adrenal estrogen sulfotransferase (E.C. 2.8.2.4.) was isolated and purified as described by Adams et al, Biochim. Biophys. Acta, 370:160-188 (1974). [^35 S]PAPS and [6,7-^3 H2 ]-estrone were purchased from New England Nuclear Corp.
# Sulfation of estrone with synthetic Compound IVa (PAPS) was determined using the procedure described in the article by Rozhin et al, ante. Sulfation by Compound Va was as follows. The ability of Compound Va to donate its sulfate to estrone was determined with [6,7-^3 H2 ]estrone (1.3·10^6 dpm/4 nmol) by modification of the above-mentioned Rozhin et al method in which Compound Va (0.11 mM) […] for Compound IVa.
# After termination of the incubation, excess free [^3 H]estrone was extracted three times with 0.3 ml of ethyl ether and the aqueous sample adjusted to 0.5 ml with redistilled methanol. An aliquot (25 μl) was applied, together with 15 μg of methanolic estrone sulfate marker, to type SG chromatography media (Gelman Instrument Co., Ann Arbor, Michigan) and developed with chloroform/acetone/acetic acid (110:35:6). Estrone sulfate was visualized by spraying with methylene blue and the spot punched out with a cork borer and counted in 10 ml of Bray's dioxane scintillation solution. […] The amount of steroid sulfate ester produced was calculated utilizing the specific activity of [^3 H]estrone.
# Storage stability = assay type: physicochemical; conditions: 50% ethanol at -20° C.
# Procedure: Fractions containing Compound IVa were pooled and the buffer was removed in the usual manner. The product was redissolved in approx. 3 ml of H2 O and the solution was adjusted to pH 7 with dilute NH4 OH. Treatment of a small aliquot of the latter with an equal volume of 0.2 M HCl at 37° C. for 1.75 h gave adenosine 3',5'-diphosphate as the sole detectable product in Systems S1 and S2. Compound IVa was homogeneous in S1, S2, E1 and E2. […] Compound IVa gave yields of 68-72% based on Compound IIa.
# [4] = target: T1, bovine adrenal estrogen sulfotransferase (EC 2.8.2.4); assay: Inhibition / affinity of desulfurylated nucleotides (coproducts) on estrogen sulfotransferase; assay type: biochemical; parameters: Ki data from Horwitz et al 1977; conditions: product of the reaction
# Excerpt: ^b Data taken from Tables II and III of Horwitz et al, Biochim.
compound,measurement,setting,value
"Nc1ncnc2c1ccn2[C@@H]1O[C@H](COP(=O)(O)OS(=O)(=O)O)[C@@H](O)[C@H]1OP(=O)(O)O [2'P(7-deaza-Ado)5'PS, tubercidin 2'-phosphate 5'-phosphosulfate]",RSR (in words),[1],relatively low
Nc1ncnc2c1ccn2[C@@H]1O[C@H](COP(=O)(O)O)[C@@H](O)[C@H]1OP(=O)(O)O [2'P(7-deaza-Ado)5'P],enzyme affinity / effect of coproduct (in words),[2],has an effect on the estrogen sulfotransferase reaction
same,Ki of coproduct,[2],compares favorably with that of 3'PAdo5'P
"Nc1ncnc2c1ncn2[C@@H]1O[C@H](COP(=O)(O)O)[C@@H](O)[C@H]1OP(=O)(O)O [2'PAdo5'P, adenosine 2',5'-diphosphate]",Ki of desulfurylated nucleotide (coproduct),"[2]; data taken from Horwitz et al, Biochim. Biophys. Acta, 480:376-381 (1977)",.infin.
same,enzyme affinity / effect of coproduct (in words),[2],weak and devoid of activity
same,Ki of coproduct,[2],.infin.
"Nc1ncnc2c1ncn2[C@@H]1O[C@H](COP(=O)(O)OS(=O)(=O)O)[C@@H](O)[C@H]1OP(=O)(O)O [2'PAdo5'PS, adenosine 2'-phosphate 5'-phosphosulfate]",activity relative to the natural isomer,"[3]; Iso-PAPS, sulfate transfer to [6,7-3H2]estrone",approximately one-third
same,activity relative to the natural isomer (IVa),[3]; sulfate transfer to estrone,approximately one-third
same,RSR at 200 μM (expected),[1]; expected value at 200 μM concentration,~0.29
same,saturation concentration,[1]; stated in Table III footnote c,100 µM
"Nc1ncnc2c1nc(Br)n2[C@@H]1O[C@H](COP(=O)(O)OS(=O)(=O)O)[C@@H](OP(=O)(O)O)[C@H]1O [3'P8-BrAdo5'PS, 8-bromoadenosine 3'-phosphate 5'-phosphosulfate]",reduction in RSR relative to IVa,[1],14-15%
same,calculated level of coproduct produced,[1],4 µM
same,RSR (in words),[1],compare favorably with active sulfate itself
same,RSR (in words),[1]; listed as IVb,the largest
"Nc1ncnc2c1ccn2[C@@H]1O[C@H](COP(=O)(O)O)[C@@H](OP(=O)(O)O)[C@H]1O [3'P(7-deaza-Ado)5'P, tubercidin (4-amino-7-(β-D-ribofuranosyl)-7H-pyrrolo-[2,3-d]-pyrimidine) 3',5'-diphosphate]",enzyme affinity / effect of coproduct (in words),[2],enhanced affinity
"Nc1ncnc2c1ccn2[C@@H]1O[C@H](COP(=O)(O)OS(=O)(=O)O)[C@@H](OP(=O)(O)O)[C@H]1O [3'P(7-deaza-Ado)5'PS, tubercidin 3'-phosphate 5'-phosphosulfate]",reduction in RSR relative to IVa,[1],14-15%
same,calculated level of coproduct produced,[1],4 µM
same,RSR (in words),[1]; listed as 3'PTu5'PS,compare favorably with active sulfate itself
same,RSR (in words),[1]; listed as IVe,the largest
"Nc1ncnc2c1ncn2[C@@H]1O[C@H](COP(=O)(O)OS(=O)(=O)O)[C@@H](OP(=O)(O)O)[C@H]1O [3'PAdo5'PS, adenosine 3'-phosphate 5'-phosphosulfate]",storage stability,Storage stability,kept indefinitely
same,saturation curves for IV from two sources,"[3]; IV 15-100 μM, [6,7-3H2]estrone 100 μM",essentially superimposable
same,activity compared with PAPS from enzymatic/biochemical procedure,"[3]; sulfate transfer to [6,7-3H2]estrone, listed as IV",virtually identical
"Nc1ncnc2c([C@@H]3O[C@H](COP(=O)(O)O)[C@@H](OP(=O)(O)O)[C@H]3O)n[nH]c12 [3'PFo5'P, formycin (7-amino-3-(β-D ribofuranosyl)pyrazolo-[4,3-d]-pyrimidine) 3',5'-diphosphate]",enzyme affinity / effect of coproduct (in words),[2],intermediate affinity
"Nc1ncnc2c([C@@H]3O[C@H](COP(=O)(O)OS(=O)(=O)O)[C@@H](OP(=O)(O)O)[C@H]3O)n[nH]c12 [3'PFo5'PS, formycin 3'-phosphate 5'-phosphosulfate]",RSR (in words),[1],modest capacity to sulfurylate estrone
"O=P(O)(O)OC[C@H]1O[C@@H](n2cnc3c(O)ncnc32)[C@H](O)[C@@H]1OP(=O)(O)O [3'PIno5'P, inosine 3',5'-diphosphate]",enzyme affinity / effect of coproduct (in words),[2],substantial loss of enzyme affinity
"O=c1[nH]cnc2c1ncn2[C@@H]1O[C@H](COP(=O)(O)OS(=O)(=O)O)[C@@H](OP(=O)(O)O)[C@H]1O [3'PIno5'PS, inosine 3'-phosphate 5'-phosphosulfate]",RSR (in words),[1],low
same,RSR (in words),[1]; listed as IVd,only minimal
"O=P(O)(O)OC[C@H]1O[C@@H](n2cnc3cncnc32)[C@H](O)[C@@H]1OP(=O)(O)O [3'PPuo5'P, nebularine (9-β-D-ribofuranosylpurine) 3',5'-diphosphate]",enzyme affinity / effect of coproduct (in words),[2],substantial loss of enzyme affinity
"O=P(O)(O)O[C@H]1[C@@H](O)[C@H](n2cnc3cncnc32)O[C@@H]1COP(=O)(O)OS(=O)(=O)O [3'PPuo5'PS, nebularine 3'-phosphate 5'-phosphosulfate]",RSR (in words),[1],low
same,RSR (in words),[1]; listed as IVc,only minimal
C[C@]12CC[C@@H]3c4ccc(OS(=O)(=O)O)cc4CC[C@H]3[C@@H]1CCC2=O [Estrone sulfate],effect on the estrogen sulfotransferase reaction,[4],little or no effect
